In data set [1] the test system is CC(=O)N[C@H]1[C@@H](OP(=O)(O)O)O[C@H](CO)[C@@H](O)[C@@H]1O. The experiment in a line: purified protein. The note with it: co-substrate UTP saturating, pH 7.5, 30 °C, 10 mM MgCl2, uridylyltransferase site.
The subject of data set [2] is CC(=O)SCCNC(=O)CCNC(=O)[C@H](O)C(C)(C)COP(=O)(O)OP(=O)(O)OC[C@H]1O[C@@H](n2cnc3c(N)ncnc32)[C@H](O)[C@@H]1OP(=O)(O)O. The experiment in a line: purified protein. The note with it: co-substrate GlcN-1P saturating, pH 7.5, 30 °C, 10 mM MgCl2.
Data set [3] relates to N[C@H]1[C@@H](OP(=O)(O)O)O[C@H](CO)[C@@H](O)[C@@H]1O. The experiment in a line: purified protein. Particulars: co-substrate Ac-CoA saturating, pH 7.5, 30 °C, 10 mM MgCl2.
Data set [4] concerns N[C@H]1[C@@H](OP(=O)(O)OP(=O)(O)OC[C@H]2O[C@@H](n3ccc(=O)[nH]c3=O)[C@H](O)[C@@H]2O)O[C@H](CO)[C@@H](O)[C@@H]1O. The data set is described as follows: purified protein. The note with it: co-substrate Ac-CoA saturating, pH 7.5, 30 °C, 10 mM MgCl2, acetyltransferase site.
The test system of data set [5] is O=c1ccn([C@@H]2O[C@H](COP(=O)(O)OP(=O)(O)OP(=O)(O)O)[C@@H](O)[C@H]2O)c(=O)[nH]1. The experiment in a line: purified protein. The note with it: co-substrate GlcNAc-1P saturating, pH 7.5, 30 °C, 10 mM MgCl2, uridylyltransferase site.
Data set [6] concerns the target T1, GlmU (Mycobacterium tuberculosis, UniProt P9WMN3). The data set is described as follows: acetyltransferase inhibition assay. The format is biochemical.
In data set [7] the target is T1, GlmU. The experiment in a line: acetyltransferase dead-end inhibition, initial velocities versus GlcN-1P. The note with it: read-out: Kis. It counts as biochemical.
The target of data set [8] is T1, GlmU. The data set is described as follows: biochemical. The format is binding.
The target of data set [9] is T1, GlmU. The data set is described as follows: acetyltransferase DTP absorbance assay (CoA-SH release). The format is biochemical.
For data set [10], the target named is T1, GlmU. The experiment in a line: biochemical. Particulars: read-out: Kis.
Data set [11] deals with T1, GlmU. The format is biochemical.
A further data set concerns the target His374 (UniProt position 374, GTKVPHLTYVG). The experiment in a line: kinetics. The note with it: 30 °C (stated for the acetyltransferase assay; not restated for the pH-rate studies); constant-ionic-strength three-component buffer (value not stated); 10 mM MgCl2; Vmax conditions (enzyme saturated with Ac-CoA and GlcN-1P), Mg2+ present.
Data set [12] has as its target T1, GlmU. The data set is described as follows: acetyltransferase dead-end inhibition, initial velocities versus Ac-CoA. The format is biochemical. The note with it: read-out: Kis.
The mark [13] stands for this setting: Km concentrations of Ac-CoA and GlcN-1P, pH 7.5, 30 °C, 10 mM MgCl2, acetyltransferase site, read-out: no inhibition at ≤10 mM.

Where two headings read alike, the source gives them in different places. Some results are limits rather than exact numbers.

The results in this text go back to paper PMC6011181, “The Mechanism of Acetyl Transfer Catalyzed by Mycobacterium tuberculosis GlmU” (Biochemistry, 2018).

A word on the Km: it is the substrate concentration at which the rate is half of its maximum. The term kcat denotes the maximal rate divided by the concentration of active sites. As usually defined, the kcat/Km is the turnover number divided by the Michaelis constant. The Kd is the constant that tells how readily two partners part at equilibrium. As a reminder, the pKa is the pH at which an ionisable group is half protonated.

T1 sequence (P9WMN3 whole entry, looked up): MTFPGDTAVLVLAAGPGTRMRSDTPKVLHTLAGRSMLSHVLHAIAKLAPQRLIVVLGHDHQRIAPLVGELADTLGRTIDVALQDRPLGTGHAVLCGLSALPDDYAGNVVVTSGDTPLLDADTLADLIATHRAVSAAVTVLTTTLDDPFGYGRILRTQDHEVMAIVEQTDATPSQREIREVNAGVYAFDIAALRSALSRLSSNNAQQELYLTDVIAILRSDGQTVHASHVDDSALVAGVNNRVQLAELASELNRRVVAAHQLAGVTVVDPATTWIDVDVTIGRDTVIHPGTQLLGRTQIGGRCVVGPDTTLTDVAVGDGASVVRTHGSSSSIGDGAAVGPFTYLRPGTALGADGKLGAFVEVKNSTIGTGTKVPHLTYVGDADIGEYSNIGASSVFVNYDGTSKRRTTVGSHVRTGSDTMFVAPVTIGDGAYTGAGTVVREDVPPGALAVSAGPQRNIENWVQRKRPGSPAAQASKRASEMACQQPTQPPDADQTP

As for GlmU (Mycobacterium tuberculosis H37Rv), the Km in [1] is 30 ± 5 µM; in [2], 250 ± 8 µM; in data set [3], 290 ± 31 µM; in data set [4], 9.7 ± 0.6 mM; in [5], 8 ± 0.8 µM. In addition, the kcat in [4] was 2.04 ± 0.06 s⁻¹; in [5], 120 ± 3 s⁻¹. The kcat/Km in data set [4] came to 220 ± 170 M⁻¹ s⁻¹; in [5], 1.5e+07 ± 3.8e+06 M⁻¹ s⁻¹.
Turning to `O=P(O)(O)OC[C@H]1OC(O)[C@@H](O)[C@@H](O)[C@@H]1O` (stereo partly shown) [mannose 6-phosphate], the IC50 at GlmU [6] (setting [13]) was over 10 mM.
In the case of `CC(C)(COP(=O)(O)OP(=O)(O)OC[C@H]1O[C@@H](n2cnc3c(N)ncnc32)[C@H](O)[C@@H]1OP(=O)(O)O)[C@@H](O)C(=O)NCCC(=O)NCCSC(=O)CC(=O)O` [Mlo-CoA], the IC50 at GlmU [6] (read-out: IC50 (mM) ^b, ^c) turned out to be 2 ± 0.59 mM.
In the case of `O=P(O)(O)O[C@H]1O[C@H](CO)[C@@H](O)[C@H](O)[C@@H]1O` [mannose 1-phosphate], on GlmU [6] (read-out: no inhibition at ≤10 mM), the IC50 is over 10 mM.
Take `O=P(O)(O)O[C@H]1O[C@H](CO)[C@@H](O)[C@H](O)[C@H]1O` [Glc-1P]: the IC50 on GlmU [6] (read-out: IC50 (mM) ^b, ^c) was 5 ± 0.65 mM. For the same molecule, the Ki at GlmU [7] turned out to be 4.1 ± 0.6 mM. On GlmU [8] (read-out: Kd), the Kd is 1.7 ± 0.4 mM.
On to `CC(C)(COP(=O)(O)OP(=O)(O)OC[C@H]1O[C@@H](n2cnc3c(N)ncnc32)[C@H](O)[C@@H]1OP(=O)(O)O)[C@@H](O)C(=O)NCCC(=O)NCCS` [CoA-SH], for which the IC50 at GlmU [9] is 0.3 ± 0.01 mM. For the same molecule, the Kd on GlmU [8] (read-out: Kd (mM) ^c) stood at 0.7 ± 0.13 mM. For the same molecule, the Ki at GlmU [10] came to 150 ± 15 µM.
For `CC(=O)N[C@H]1C(O)O[C@H](CO)[C@H](O)[C@@H]1O` (stereo partly shown) [N-acetyl-galactosamine], the IC50 on GlmU [6] (setting [13]) was over 10 mM.
As to `C/C=C/C(=O)SCCNC(=O)CCNC(=O)[C@H](O)C(C)(C)COP(=O)(O)OP(=O)(O)OC[C@H]1O[C@@H](n2cnc3c(N)ncnc32)[C@H](O)[C@@H]1OP(=O)(O)O` [Cro-CoA], on GlmU [6] (read-out: IC50 (mM) ^b, ^c), the IC50 was found to be 1 ± 0.15 mM.
Take `O=P(O)(O)OC[C@H]1OC(O)[C@H](O)[C@@H](O)[C@@H]1O` (stereo partly shown) [glucose 6-phosphate]: the IC50 at GlmU [6] (setting [13]) is over 10 mM.
With `N[C@H]1[C@@H](OP(=O)(O)O)O[C@H](CO)[C@@H](O)[C@@H]1O` [GlcN-1P], the Kd result on GlmU [11] was “in the presence of high concentrations of the second substrate, the Kd values for the complex”.
In the case of `N[C@H]1C(O)O[C@H](COP(=O)(O)O)[C@@H](O)[C@@H]1O` (stereo partly shown) [GlcN-6P], the IC50 on GlmU [6] (Km concentrations of Ac-CoA and GlcN-1P, pH 7.5, 30 °C, 10 mM MgCl2, read-out: IC50 (mM) ^b, ^c) worked out at 10 ± 0.89 mM.
On to `CC(C)C(=O)SCCNC(=O)CCNC(=O)[C@H](O)C(C)(C)COP(=O)(O)OP(=O)(O)OC[C@H]1O[C@@H](n2cnc3c(N)ncnc32)[C@H](O)[C@@H]1OP(=O)(O)O` [IsoBu-CoA], for which, at GlmU [6] (read-out: IC50 (mM) ^b, ^c), the IC50 came out at 2 ± 0.21 mM.
Take `CC(=O)N[C@@H]1C(O)O[C@H](CO)[C@@H](O)[C@@H]1O` (stereo partly shown) [N-acetyl-mannosamine]: the IC50 on GlmU [6] (setting [13]) is over 10 mM.
For `CCC(=O)SCCNC(=O)CCNC(=O)[C@H](O)C(C)(C)COP(=O)(O)OP(=O)(O)OC[C@H]1O[C@@H](n2cnc3c(N)ncnc32)[C@H](O)[C@@H]1OP(=O)(O)O` [Pro-CoA], the Kd on GlmU [8] (read-out: Kd (μM) ^b) is 0.5 ± 0.1 mM.
For the molecule “Bifunctional N-acetyltransferase/uridylyltransferase GlmU (Mycobacterium tuberculosis H37Rv)”, in the data set with His374, the pKa is on record as 6.7 ± 0.1.
With `CCCC(=O)SCCNC(=O)CCNC(=O)[C@H](O)C(C)(C)COP(=O)(O)OP(=O)(O)OC[C@H]1O[C@@H](n2cnc3c(N)ncnc32)[C@H](O)[C@@H]1OP(=O)(O)O` [Bu-CoA], the Ki at GlmU [12] was found to be 350 ± 30 µM. The IC50 on GlmU [6] (read-out: IC50 (mM) ^b, ^c) came to 1 ± 0.03 mM. In addition, the Kd at GlmU [8] (read-out: Kd (mM) ^c) came to 3.8 ± 0.8 mM.
In the case of `CC(=O)SCCNC(=O)CCNC(=O)[C@H](O)C(C)(C)COP(=O)(O)OP(=O)(O)OC[C@H]1O[C@@H](n2cnc3c(N)ncnc32)[C@H](O)[C@@H]1OP(=O)(O)O` [Ac-CoA], the dissociation constant Kd at GlmU [8] (read-out: Kd (μM) ^b) was 0.25 ± 0.025 mM.
